Measured values from ChEMBL document CHEMBL4699602, “Stapled and Xenopus Glucagon-Like Peptide 1 (GLP-1)-Based Dual GLP-1/Gastrin Receptor Agonists with Improved Metabolic Benefits in Rodent Models of Obesity and Diabetes” (J Med Chem, 2020).
Activity calls are given as the source filed them. The calls are words filed in the database; no cut-off is given here. *1 amine or outer side, *2 acyl side, *3 side chain or, on linkers, in order; H or OH if unused. Where a SMILES comes first, the peptide text is derived from it. Bridges are numbered along the chain shown (N, C = ends). [ ]: non-standard residue; d: D form. X3 = O=C(O)CCCCCCCCCCCCCCCCC(=O)NC(CCC(=O)NCCOCCOCC(=O)NCCCCCCNC(=O)C(CCCCNC(=O)CCN1C(=O)CC([*:1])C1=O)NC(=O)CCN1C(=O)CC([*:2])C1=O)C(=O)O; AEEA = NCCOCCOCC(=O)O; Aib = CC(C)(N)C(=O)O

Tests used:
[1] = biological target: Glucagon-like peptide 1 receptor (Homo sapiens, UniProt P43220); assay: Agonist activity at human GLP-1R expressed in HEK293 cells assessed as stimulation of cAMP accumulation incubated for 20 mins; assay type: functional, cell-based
Sequence of Glucagon-like peptide 1 receptor (P43220 whole entry): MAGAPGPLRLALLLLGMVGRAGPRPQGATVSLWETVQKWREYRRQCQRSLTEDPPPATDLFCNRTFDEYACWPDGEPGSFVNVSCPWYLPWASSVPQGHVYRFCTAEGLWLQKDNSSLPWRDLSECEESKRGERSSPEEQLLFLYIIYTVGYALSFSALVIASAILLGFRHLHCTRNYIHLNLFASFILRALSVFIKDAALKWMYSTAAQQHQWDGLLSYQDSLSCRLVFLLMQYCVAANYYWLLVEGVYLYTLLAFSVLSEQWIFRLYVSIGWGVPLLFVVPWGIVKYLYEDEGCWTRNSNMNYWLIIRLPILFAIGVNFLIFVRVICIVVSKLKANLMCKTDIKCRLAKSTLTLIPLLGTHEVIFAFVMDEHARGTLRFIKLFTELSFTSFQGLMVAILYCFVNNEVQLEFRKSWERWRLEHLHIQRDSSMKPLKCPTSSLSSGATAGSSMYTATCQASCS

[2] = biological target: T1, Cholecystokinin receptor type A (Homo sapiens, UniProt P32238); assay: Agonist activity at human CCK-1R expressed in HEK293 cells assessed as stimulation of ERK phosphorylation incubated for 5 mins; assay type: cell-based
T1 sequence (P32238 whole entry): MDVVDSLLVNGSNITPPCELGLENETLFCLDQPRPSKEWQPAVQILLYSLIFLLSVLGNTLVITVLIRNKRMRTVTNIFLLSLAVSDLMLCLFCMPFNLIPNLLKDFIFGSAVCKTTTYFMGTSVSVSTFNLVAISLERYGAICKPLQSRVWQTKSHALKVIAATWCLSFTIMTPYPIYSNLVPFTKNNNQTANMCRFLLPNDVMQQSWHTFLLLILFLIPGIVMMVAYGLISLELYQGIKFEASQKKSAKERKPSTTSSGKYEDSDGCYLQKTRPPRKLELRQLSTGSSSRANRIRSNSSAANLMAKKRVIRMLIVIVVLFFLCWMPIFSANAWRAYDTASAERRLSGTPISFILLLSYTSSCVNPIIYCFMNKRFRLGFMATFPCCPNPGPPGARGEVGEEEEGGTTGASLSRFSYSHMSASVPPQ

[3] = biological target: T2, Gastrin/cholecystokinin type B receptor (Homo sapiens, UniProt P32239); assay: Agonist activity at human CCK-2R expressed in HEK293 cells assessed as stimulation of ERK phosphorylation incubated for 5 mins; assay type: cell-based
T2 sequence (P32239 whole entry): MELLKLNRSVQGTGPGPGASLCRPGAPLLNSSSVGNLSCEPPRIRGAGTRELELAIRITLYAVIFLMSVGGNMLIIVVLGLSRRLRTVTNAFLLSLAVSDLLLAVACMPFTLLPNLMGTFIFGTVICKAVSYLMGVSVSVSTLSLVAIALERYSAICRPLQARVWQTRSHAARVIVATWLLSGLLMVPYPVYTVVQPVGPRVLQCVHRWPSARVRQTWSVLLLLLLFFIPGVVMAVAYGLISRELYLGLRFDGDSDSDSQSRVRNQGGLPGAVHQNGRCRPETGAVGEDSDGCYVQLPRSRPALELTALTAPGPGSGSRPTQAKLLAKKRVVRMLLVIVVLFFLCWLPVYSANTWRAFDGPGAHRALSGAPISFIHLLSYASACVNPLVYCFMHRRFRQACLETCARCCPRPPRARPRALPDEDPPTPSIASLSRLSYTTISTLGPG

Mus musculus = assay: Hypoglycemic activity in ICR mouse assessed as decrease in blood glucose concentration at 25 nmol/kg, ip dosed 15 mins before test and measured up to 120 mins by OGTT method; assay type: functional, organism-based

Molecule | EC50 [1] | EC50 [2] | EC50 [3] | Activity (Mus musculus)
CC[C@H](C)[C@H](NC(=O)[C@H](CC(C)C)NC(=O)[C@H](Cc1c[nH]c2ccccc12)NC(=O)[C@H](CCC(=O)O)NC(=O)[C@@H](NC(=O)[C@H](Cc1ccccc1)NC(=O)[C@@H]1CSC2CC(=O)N(CCC(=O)NC(C(=O)NCCCCCCNC(=O)COCCOCCNC(=O)CCC(NC(=O)CCCCCCCCCCCCCCCCC(=O)O)C(=O)O)CCCCNC(=O)CCN3C(=O)CC(SC[C@H](NC(=O)[C@H](Cc4ccc(O)cc4)NC(=O)[C@H](CCC(=O)O)NC(=O)[C@@H](NC(=O)[C@@H](NC(=O)[C@H](CC(=O)O)NC(=O)[C@H](CC(N)=O)NC(=O)[C@@H](NC(=O)[C@H](Cc4ccc(O)cc4)NC(=O)[C@@H](NC(=O)CNC(=O)[C@H](CCC(=O)O)NC(=O)C(C)(C)NC(=O)[C@@H](N)Cc4c[nH]cn4)[C@@H](C)O)[C@@H](C)O)C(C)C)[C@@H](C)O)C(=O)N[C@@H](CCC(=O)O)C(=O)N[C@@H](CCC(=O)O)C(=O)N[C@@H](CCC(=O)O)C(=O)N[C@@H](C)C(=O)N[C@@H](C)C(=O)N[C@@H](CCCCN)C(=O)N1)C3=O)C2=O)[C@@H](C)CC)C(=O)N[C@@H](CCCCN)C(=O)NCC(=O)N[C@@H](CCCCN)C(=O)NCCOCCOCC(=O)NCCOCCOCC(=O)N[C@@H](Cc1ccc(O)cc1)C(=O)NCC(=O)N[C@@H](Cc1c[nH]c2ccccc12)C(=O)N[C@@H](CC(C)C)C(=O)N[C@@H](CC(=O)O)C(=O)N[C@@H](Cc1ccccc1)C(N)=O (some centres not stated) (H-H[Aib]EGTYTNDVTEYCEEEAAKCFIEWLIKGK[AEEA][AEEA]YGWLDF-NH2; linker 14-21 via X3) | 0.055 nM | > 1000 nM | 15.2 nM | –
CC[C@H](C)[C@@H]1NC(=O)[C@H](CC(C)C)NC(=O)[C@H](Cc2c[nH]c3ccccc23)NC(=O)[C@H](CCC(=O)O)NC(=O)[C@H]([C@@H](C)CC)NC(=O)[C@H](Cc2ccccc2)NC(=O)[C@@H](NC(=O)[C@H](CCCCN)NC(=O)[C@H](C)NC(=O)[C@H](C)NC(=O)[C@H](CCC(=O)O)NC(=O)[C@H](CCC(=O)O)NC(=O)[C@H](CCC(=O)O)NC(=O)[C@H](CC(C)C)NC(=O)[C@H](Cc2ccc(O)cc2)NC(=O)[C@H](CCC(=O)O)NC(=O)[C@@H](NC(=O)[C@@H](NC(=O)[C@H](CC(=O)O)NC(=O)[C@H](CC(N)=O)NC(=O)[C@@H](NC(=O)[C@H](Cc2ccc(O)cc2)NC(=O)[C@@H](NC(=O)CNC(=O)[C@H](CCC(=O)O)NC(=O)C(C)(C)NC(=O)[C@@H](N)Cc2c[nH]cn2)[C@@H](C)O)[C@@H](C)O)C(C)C)[C@@H](C)O)CSC2CC(=O)N(CCC(=O)NCCCCC(C(=O)NCCCCCCNC(=O)COCCOCCNC(=O)CCC(NC(=O)CCCCCCCCCCCCCCCCC(=O)O)C(=O)O)NC(=O)CCN3C(=O)CC(SC[C@@H](C(=O)NCC(=O)N[C@@H](CCCCN)C(=O)NCCOCCOCC(=O)NCCOCCOCC(=O)N[C@@H](Cc4ccc(O)cc4)C(=O)NCC(=O)N[C@@H](Cc4c[nH]c5ccccc45)C(=O)N[C@@H](CC(C)C)C(=O)N[C@@H](CC(=O)O)C(=O)N[C@@H](Cc4ccccc4)C(N)=O)NC1=O)C3=O)C2=O (some centres not stated) (H-H[Aib]EGTYTNDVTEYLEEEAAKCFIEWLICGK[AEEA][AEEA]YGWLDF-NH2; linker 21-28 via X3) | 0.061 nM | > 1000 nM | 17.5 nM | –
CC[C@H](C)[C@H](NC(=O)[C@H](CC(C)C)NC(=O)[C@H](Cc1c[nH]c2ccccc12)NC(=O)[C@H](CCC(=O)O)NC(=O)[C@@H](NC(=O)[C@H](Cc1ccccc1)NC(=O)[C@H](CS)NC(=O)[C@H](CCCCN)NC(=O)[C@H](C)NC(=O)[C@H](C)NC(=O)[C@H](CCC(=O)O)NC(=O)[C@H](CCC(=O)O)NC(=O)[C@H](CCC(=O)O)NC(=O)[C@H](CS)NC(=O)[C@H](Cc1ccc(O)cc1)NC(=O)[C@H](CCC(=O)O)NC(=O)[C@@H](NC(=O)[C@@H](NC(=O)[C@H](CC(=O)O)NC(=O)[C@H](CC(N)=O)NC(=O)[C@@H](NC(=O)[C@H](Cc1ccc(O)cc1)NC(=O)[C@@H](NC(=O)CNC(=O)[C@H](CCC(=O)O)NC(=O)C(C)(C)NC(=O)[C@@H](N)Cc1c[nH]cn1)[C@@H](C)O)[C@@H](C)O)C(C)C)[C@@H](C)O)[C@@H](C)CC)C(=O)N[C@@H](CCCCN)C(=O)NCC(=O)N[C@@H](CCCCN)C(=O)N1CCC[C@H]1C(=O)N[C@@H](CO)C(=O)N[C@@H](CO)C(=O)NCC(=O)N[C@@H](C)C(=O)N1CCC[C@H]1C(=O)N1CCC[C@H]1C(=O)N1CCC[C@H]1C(=O)N[C@@H](CO)C(N)=O (HELM PEPTIDE1{H.[Aib].E.G.T.Y.T.N.D.V.T.E.Y.C.E.E.E.A.A.K.C.F.I.E.W.L.I.K.G.K.P.S.S.G.A.P.P.P.S.[am]}$$$$V2.0) | 0.042 nM | – | – | Active
CC[C@H](C)[C@H](NC(=O)[C@H](CC(C)C)NC(=O)[C@H](Cc1c[nH]c2ccccc12)NC(=O)[C@H](CCC(=O)O)NC(=O)[C@@H](NC(=O)[C@H](Cc1ccccc1)NC(=O)[C@H](CS)NC(=O)[C@H](CCCCN)NC(=O)[C@H](C)NC(=O)[C@H](C)NC(=O)[C@H](CCC(=O)O)NC(=O)[C@H](CCC(=O)O)NC(=O)[C@H](CCC(=O)O)NC(=O)[C@H](CS)NC(=O)[C@H](Cc1ccc(O)cc1)NC(=O)[C@H](CCC(=O)O)NC(=O)[C@@H](NC(=O)[C@@H](NC(=O)[C@H](CC(=O)O)NC(=O)[C@H](CC(N)=O)NC(=O)[C@@H](NC(=O)[C@H](Cc1ccc(O)cc1)NC(=O)[C@@H](NC(=O)CNC(=O)[C@H](CCC(=O)O)NC(=O)C(C)(C)NC(=O)[C@@H](N)Cc1c[nH]cn1)[C@@H](C)O)[C@@H](C)O)C(C)C)[C@@H](C)O)[C@@H](C)CC)C(=O)N[C@@H](CCCCN)C(=O)NCC(=O)N[C@@H](CCCCN)C(N)=O (HELM PEPTIDE1{H.[Aib].E.G.T.Y.T.N.D.V.T.E.Y.C.E.E.E.A.A.K.C.F.I.E.W.L.I.K.G.K.[am]}$$$$V2.0) | 0.066 nM | – | – | Active
CC[C@H](C)[C@H](NC(=O)[C@H](CC(C)C)NC(=O)[C@H](Cc1c[nH]c2ccccc12)NC(=O)[C@H](CCC(=O)O)NC(=O)[C@@H](NC(=O)[C@H](Cc1ccccc1)NC(=O)[C@H](CS)NC(=O)[C@H](CCCCN)NC(=O)[C@H](C)NC(=O)[C@H](C)NC(=O)[C@H](CCC(=O)O)NC(=O)[C@H](CCC(=O)O)NC(=O)[C@H](CCC(=O)O)NC(=O)[C@H](CC(C)C)NC(=O)[C@H](Cc1ccc(O)cc1)NC(=O)[C@H](CCC(=O)O)NC(=O)[C@@H](NC(=O)[C@@H](NC(=O)[C@H](CC(=O)O)NC(=O)[C@H](CC(N)=O)NC(=O)[C@@H](NC(=O)[C@H](Cc1ccc(O)cc1)NC(=O)[C@@H](NC(=O)CNC(=O)[C@H](CCC(=O)O)NC(=O)C(C)(C)NC(=O)[C@@H](N)Cc1c[nH]cn1)[C@@H](C)O)[C@@H](C)O)C(C)C)[C@@H](C)O)[C@@H](C)CC)C(=O)N[C@@H](CS)C(=O)NCC(=O)N[C@@H](CCCCN)C(=O)N1CCC[C@H]1C(=O)N[C@@H](CO)C(=O)N[C@@H](CO)C(=O)NCC(=O)N[C@@H](C)C(=O)N1CCC[C@H]1C(=O)N1CCC[C@H]1C(=O)N1CCC[C@H]1C(=O)N[C@@H](CO)C(N)=O (HELM PEPTIDE1{H.[Aib].E.G.T.Y.T.N.D.V.T.E.Y.L.E.E.E.A.A.K.C.F.I.E.W.L.I.C.G.K.P.S.S.G.A.P.P.P.S.[am]}$$$$V2.0) | 0.052 nM | – | – | Active
CC[C@H](C)[C@H](NC(=O)[C@H](CC(C)C)NC(=O)[C@H](Cc1c[nH]c2ccccc12)NC(=O)[C@H](CCC(=O)O)NC(=O)[C@@H](NC(=O)[C@H](Cc1ccccc1)NC(=O)[C@H](CS)NC(=O)[C@H](CCCCN)NC(=O)[C@H](C)NC(=O)[C@H](C)NC(=O)[C@H](CCC(=O)O)NC(=O)[C@H](CCC(=O)O)NC(=O)[C@H](CCC(=O)O)NC(=O)[C@H](CC(C)C)NC(=O)[C@H](Cc1ccc(O)cc1)NC(=O)[C@H](CCC(=O)O)NC(=O)[C@@H](NC(=O)[C@@H](NC(=O)[C@H](CC(=O)O)NC(=O)[C@H](CC(N)=O)NC(=O)[C@@H](NC(=O)[C@H](Cc1ccc(O)cc1)NC(=O)[C@@H](NC(=O)CNC(=O)[C@H](CCC(=O)O)NC(=O)C(C)(C)NC(=O)[C@@H](N)Cc1c[nH]cn1)[C@@H](C)O)[C@@H](C)O)C(C)C)[C@@H](C)O)[C@@H](C)CC)C(=O)N[C@@H](CS)C(=O)NCC(=O)N[C@@H](CCCCN)C(N)=O (HELM PEPTIDE1{H.[Aib].E.G.T.Y.T.N.D.V.T.E.Y.L.E.E.E.A.A.K.C.F.I.E.W.L.I.C.G.K.[am]}$$$$V2.0) | 0.083 nM | – | – | Active
H-HGEGTYTNDVTEYLEEEAAKEFIEWLIKGK-NH2 | 0.048 nM | – | – | Active
H-HGEGTYTNDVTEYLEEEAAKEFIEWLIKGKPSSGAPPSKKKKKK-NH2 | 0.024 nM | – | – | Active
H-H[Aib]EGTYTNDVTEYCEEEAAKCFIEWLIKGKPSSGAPPSKKKKKK-NH2 (cysteines drawn unpaired) | 0.028 nM | – | – | Active
H-H[Aib]EGTYTNDVTEYLEEEAAKCFIEWLICGKPSSGAPPSKKKKKK-NH2 (cysteines drawn unpaired) | 0.036 nM | – | – | Active
